Laboratory results: US20120225093A1, “Abrogating HIV-1 Infection via Drug-Induced Reactivation of Apoptosis” (UNIVERSITY OF MEDICINE AND DENTISTRY OF NEW JERSEY, priority 2010, published 2012)

Assays:
eIF5A:DOHH complex = target: T1, eIF5A:DOHH complex (Homo sapiens, UniProt Q9BU89); assay: Co-immunoprecipitation of eIF5A with DOHH from 293T cell extracts; type: cell-based; details: for interaction between endogenous eIF5A and tagged DOHH: 293T transfected with FLAG-DOHH; for association of endogenous DOHH with FLAG-eIF5A: CPX 30 μM, P2 30 μM, DEF 250 μM, DFOX 10 μM, GC7 10 μM, 24 hr
T1 construct: Endogenous DOHH co-immunoprecipitated with FLAG-eIF5A; expressed in transfected cells; host or cells: 293T cells (DOHH endogenous, FLAG-eIF5A transfected)
T1 sequence (Q9BU89 1-302): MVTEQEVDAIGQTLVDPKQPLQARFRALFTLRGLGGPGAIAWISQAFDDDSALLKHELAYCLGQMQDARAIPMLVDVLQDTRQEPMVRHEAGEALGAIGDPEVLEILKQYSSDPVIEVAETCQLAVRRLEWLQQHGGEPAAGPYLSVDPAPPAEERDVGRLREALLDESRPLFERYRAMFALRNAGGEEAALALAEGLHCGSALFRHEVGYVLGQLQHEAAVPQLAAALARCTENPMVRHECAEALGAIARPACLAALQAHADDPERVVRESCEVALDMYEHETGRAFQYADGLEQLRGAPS
Procedure: (§1) Immunoprecipitation and immunoblotting experiments were carried out as described previously in Hoque et al. Mol Cell Biol 2003, 23:1688-1702.
eIF5A forms tight complexes with its modifying enzymes. Unmodified eIF5A (lysine-50) immunoprecipitates with DHS and deoxyhypusyl-eIF5A interacts with DOHH in vitro. It was discovered that the deoxyhypusyl-eIF5A:DOHH complex formed in vivo can be detected by immunoprecipitation from cell extracts. Taking advantage of this finding, the effects of the drugs on the enzyme-substrate interaction were tested. FLAG-eIF5A was expressed in 293T cells and complexes that immunoprecipitated with anti-FLAG antibody were immunoblotted and probed with antibodies against DOHH. […] As a further control, the DHS inhibitor GC7 was included in this assay. […] As expected, none of the compounds affected the immunoprecipitation of FLAG-eIF5A (FIG. 2D, middle panel) or the expression of endogenous eIF5A (FIG. 2D, bottom panel). Reciprocally, the interaction between endogenous eIF5A and tagged DOHH was inhibited by CPX and DEF (FIG. 2E, right). Similarly, the interaction of endogenous eIF5A with tagged DHS was inhibited by GC7 (FIG. 2E, left) but resistant to CPX and DEF. It is concluded that CPX and DEF, but not P2 or DFOX, target DOHH and inhibit its interaction with its substrate, deoxyhypusylelF5A.

eIF5A = eIF5A maturation in 293T cells, immunoblot with NIH-353 antibody; type: cell-based, human; details: for concentration range reducing appearance of mature eIF5A: 293T transfected with FLAG-eIF5A, 24 hr
Procedure: Rabbit NIH-353 antibody was raised against mature human eIF5A (Cracchiolo et al. Gynecol Oncol 2004, 94:217-222). Antibody against DOHH was generated by M. H. Park. Anti-eIF5A-1 monoclonal antibody (BD) was purchased from BD Biosciences. The anti-FLAG monoclonal antibody M2 and anti-actin antibody were purchased from Sigma.
as §1
To examine the effect of the drugs on the synthesis of modified eIF5A, 293T cells transfected with a FLAG-tagged eIF5A expression vector were simultaneously treated with CPX or DEF. FLAG-eIF5A was monitored using NIH-353 and anti-FLAG antibodies (FIG. 2A,B). The NIH-353 antibody reacts preferentially with post-translationally modified eIF5A. CPX reduced the appearance of mature eIF5A over the 3-30 μM concentration range, while DEF was effective at 200-400 μM. […] In addition to the CPX homolog Agent P2, deferoxamine (DFOX; Desferal™) was used as a control compound.

HIV-1 promoter = assay: Dual luciferase assay, HIV-1 molecular clone pNL4-3-LucE- and derived constructs in 293T cells; type: cell-based; details: for inhibition of expression from construct VI: 3′-LTR replaced by SV40 poly(A) signal; for dose dependence of repression of expression from pNL4-3-LucE- / repression of luciferase expression (FF:Ren) from pNL4-3-LucE-: 12 hr post-transfection; for repression of luciferase expression (FF:Ren) from pNL4-3-LucE-: CPX 30 μM, DEF 250 μM, P2 30 μM; for inhibition of FF expression from construct V: all open reading frames deleted except luciferase; for inhibition of FF expression from constructs III and IV: within 12 hr, Tat-deficient constructs complemented with Tat vector
Procedure: Plasmids were introduced into 2×10^5 293T cells by transfection using Lipofectamine 2000 (Invitrogen) according to the manufacturer's instructions. Compounds (such as CPX or DEF) were added simultaneously. Cells were harvested at 12 hr post-transfection, washed with PBS, lysed in 0.15 ml of 1× passive lysis buffer (Promega), and assayed for luciferase activity using the Promega dual luciferase reporter system according to the manufacturer's instructions. Jurkat cells (1×10^6 cells) were transfected using FuGENE 6 (Roche) according to the manufacturer's instructions and assayed in a similar fashion after pelleting.
293T cells (10^5 cells/well of 12-well microplates) were seeded and transfected 20 hr later with a firefly luciferase (Luc)-expressing reporter plasmid and corresponding Renilla luciferase (Ren)-expressing reference plasmid using TransFectin™ (Bio-Rad, Hercules, Calif.). The bioavailable intracellular iron concentration was monitored using plasmids obtained from B. Galy and M. W. Hentze (EMBL, Heidelberg). Plasmid pcFIF-Luc contains the mouse ferritin H 5′-UTR with an iron response element (IRE) controlling Luc; pcFIRo-Ren is a similar construct expressing a mutated non-functional IRE fused to Ren. The activity of the HIV-1 promoter was monitored using the pNL4-3-Luc E molecular clone (Chen et al. (1994) J Virol 68: 654-660.), based on the recombinant infectious proviral clone that contains DNA from HIV isolates NY5 (5′ half) and IIIB (3′ half). This plasmid, obtained from D. Baltimore (Caltech, Pasadena), contains the Luc gene in place of 102 nucleotides from nef and 6 nucleotides from env. pCMV-Ren (Promega, Madison, Wis.) was used as reference for pNL4-3-Luc E. Compounds were added at the time of transfection. Cells were harvested 12 hr later, washed with phosphate-buffered saline, and lysed for the dual luciferase assay (Dual Luciferase™ Reporter Assay System; Promega, Madison, Wis.). Luc data were normalized to the Ren internal controls (Hogue et al. (2009) Retrovirology 6: 90.).
293T cells were selected as a model system to explore the relationship between the drugs, eIF5A and HIV gene expression. These cells efficiently transcribe HIV-1 genes from molecular clones as well as subviral constructs, allowing for early detection of changes in HIV gene expression. To establish the system, assays were carried out to examine the effect of CPX and DEF on the expression of firefly luciferase (FF) from the HIV-1 molecular clone, pNL4-3-LucE-, engineered to carry the FF gene in place of the viral nef gene. The molecular clone was transfected into 293T cells together with the pCMV-Ren vector that expresses Renilla luciferase (Ren) from the cytomegalovirus (CMV) immediate early promoter as a control for transfection efficiency and non-specific effects of the compounds. Dual luciferase assays were conducted at 12 hr post-transfection and results are expressed as relative luciferase activity (FF:Ren). […] Assays therefore were carried out to characterize the action of CPX and DEF on eIF5A and HIV gene expression in 293T cells during the first 12 to 24 hr of drug treatment.

| SMILES | interaction between endogenous eIF5A and tagged DOHH (eIF5A:DOHH complex) | association of endogenous DOHH with FLAG-eIF5A (eIF5A:DOHH complex) | concentration range reducing appearance of mature eIF5A (eIF5A) [µM] | inhibition of expression from construct VI (HIV-1 promoter) [%] | dose dependence of repression of expression from pNL4-3-LucE- (HIV-1 promoter) | repression of luciferase expression (FF:Ren) from pNL4-3-LucE- (HIV-1 promoter; DFOX 15 μM) | inhibition of FF expression from construct V (HIV-1 promoter) [%] | inhibition of FF expression from constructs III and IV (HIV-1 promoter) [%] | effect on appearance of mature FLAG-eIF5A (eIF5A; 293T, control compounds) | decrease of HIV-encoded luciferase expression (HIV-1 promoter; run parallel to IRE reporter (FIG. 11B), DFOX 15 μM) |
| --- | --- | --- | --- | --- | --- | --- | --- | --- | --- | --- |
| Cc1c(O)c(=O)ccn1C [DEF, 3-hydroxy-1,2-dimethylpyridin-4(1H)-one] | inhibited | largely prevented | 200 to 400 | ~50 | repressed expression from the HIV-1 molecular clone in a dose dependent fashion | ~50% | ~50 | ~50 | – | – |
| Cc1ccn(O)c(=O)c1 [Agent P2, 1-hydroxy-4-methylpyridin-2[1H]-one] | – | neither P2 or DFOX prevented the formation of the eIF5A:DOHH complex | – | – | – | ineffective | – | – | little or no effect | no effect on either IRE-dependent or HIV-encoded luciferase expression |
| Cc1cc(C2CCCCC2)n(O)c(=O)c1 [CPX, 6-cyclohexyl-1-hydroxy-4-methylpyridin-2[1H]-one] | inhibited | largely prevented | 3 to 30 | ~50 | repressed expression from the HIV-1 molecular clone in a dose dependent fashion | ~50% | ~50 | ~50 | – | – |
